How the values were obtained:
[1] = Inhibition of chymotrypsin-like activity of 26S proteasome in human Molt4 cells using MeOSuc-Phe-Leu-Phe-AFC substrate; assay type: cell-based; details: MOLT-4
[2] = Inhibition of chymotrypsin-like activity of human liver 26S proteasome using Suc-LLVY-AMC substrate
[3] = Inhibition of chymotrypsin-like activity of 26S proteasome

Row | Compound | EC50 [1] | IC50 [2] | IC50 [3]
1 | CC(C)C[C@H](NC(=O)[C@@H](NC(=O)C(CCCCCCCCN1C(=O)c2ccccc2C1=O)C1CCCC1)[C@@H](C)O)B1O[C@@H]2C[C@@H]3C[C@@H](C3(C)C)[C@]2(C)O1 (mixture of isomers) | 100 nM | 7 nM | –
2 | CCCCCC(=O)N[C@H](C(=O)N[C@@H](CC(C)C)B1O[C@@H]2C[C@@H]3C[C@@H](C3(C)C)[C@]2(C)O1)[C@@H](C)O | – | > 10 nM | –
3 | CC(C)C[C@H](NC(=O)C(NC(=O)[C@H](CC(C)C)NC(=O)OCc1ccccc1)C(C)O)B1O[C@@H]2C[C@@H]3C[C@@H](C3(C)C)[C@]2(C)O1 (single isomer, unassigned) | 120 nM | 1 nM | –
4 | CC(C)C[C@H](NC(=O)[C@H](Cc1ccccc1)NC(=O)c1cnccn1)B(O)O [BORTEZOMIB] | 21 nM | 4 nM | –
5 | CC(C)C[C@@H](C=O)NC(=O)[C@H](CCCN/C(N)=N/[N+](=O)[O-])NC(=O)C(CCCCCCCCN1C(=O)c2ccccc2C1=O)C1CCCC1 (some centres undefined) | – | – | 2 nM
6 | CC(C)C[C@H](NC(=O)[C@@H](N)[C@@H](C)O)B1O[C@@H]2C[C@@H]3C[C@@H](C3(C)C)[C@]2(C)O1 | – | > 10 nM | –
7 | CC(C)C[C@H](NC(=O)[C@@H](NC(=O)c1cnccn1)[C@@H](C)O)B1O[C@@H]2C[C@@H]3C[C@@H](C3(C)C)[C@]2(C)O1 | – | > 10 nM | –
8 | CC(C)C[C@@H](C=O)NC(=O)[C@H](CCCN/C(N)=N/[N+](=O)[O-])NC(=O)C(CCCCCCCCC#N)C1CCCC1 (some centres undefined) | – | – | 6 nM
9 | CC(C)C[C@H](NC(=O)[C@@H](NC(=O)c1ccccc1)[C@@H](C)O)B1O[C@@H]2C[C@@H]3C[C@@H](C3(C)C)[C@]2(C)O1 | – | > 10 nM | –
10 | CC(C)C[C@H](NC(=O)[C@H](CCCN/C(N)=N/[N+](=O)[O-])NC(=O)C(CCCCCCCCN1C(=O)c2ccccc2C1=O)C1CCCC1)B1OC2C[C@@H]3C[C@@H](C3(C)C)[C@]2(C)O1 (some centres undefined) | 70 nM | 3.5 nM | –
11 | CC(C)C[C@H](NC(=O)[C@H](CCCN/C(N)=N/[N+](=O)[O-])NC(=O)C(CCCCCCCCC#N)C1CCCC1)B1OC(C)(C)C(C)(C)O1 (some centres undefined) | – | – | 6 nM
12 | CC(C)C[C@H](NC(=O)[C@@H](NC(=O)OC(C)(C)C)[C@@H](C)O)B1O[C@@H]2C[C@@H]3C[C@@H](C3(C)C)[C@]2(C)O1 | – | > 10 nM | –
13 | CC(C)C[C@H](NC(=O)[C@@H](NC(=O)OCc1ccccc1)[C@@H](C)O)B1O[C@@H]2C[C@@H]3C[C@@H](C3(C)C)[C@]2(C)O1 | – | > 10 nM | –
14 | COCCOCCOCC(=O)N[C@H](C(=O)N[C@@H](CC(C)C)B1O[C@@H]2C[C@@H]3C[C@@H](C3(C)C)[C@]2(C)O1)[C@@H](C)O | – | > 10 nM | –
15 | CC(C)C[C@H](NC(=O)[C@H](CCCN/C(N)=N/[N+](=O)[O-])NC(=O)C(CCCCCCCCC#N)C1CCCC1)C(=O)C(=O)NCCNS(=O)(=O)c1ccccc1 (some centres undefined) | – | – | 1 nM

Source: ChEMBL document CHEMBL2021926, “Serendipity in discovery of proteasome inhibitors” (Bioorg Med Chem Lett, 2012)
